Measured values taken from patent US10106552B2, “Compounds inhibiting eukaryotic elongation factor 2 kinase activity” (Longevica Pharmaceuticals, Inc., priority 2013, dated 2018).

Target: recombinant eEF2K (Homo sapiens (Human), UniProt O00418)
Test: eEF2K Kinase-Glo luminescent kinase assay (ATP consumption, peptide substrate)
Assay type: biochemical
Conditions: average of two to four separate experimental measurements, each the average of three replicates
Protocol: The following compounds were synthesized using the general methods described above. In the table below, IC50 values are in μM and are the average of two to four separate experimental measurements, each consisting in turn of the average of three replicates. IC50 values were calculated using the methods as described in Example 2. MW was determined by mass spectroscopy analysis, and is expressed as M+1.
To determine the IC50 of compounds of the invention, recombinant eEF2K was diluted in an assay buffer in the presence of calmodulin, a calcium-binding messenger protein expressed in eukaryotic cells, and incubated with peptide substrate Ac-RKKYKFNEDTERRRFL in the presence of Adenosine-5′-triphosphate (ATP) and the test compound. The peptide substrate is efficiently and specifically phosphorylated by eEF2K at a single substrate concentration of 100 μM. Using this peptide, eEF2K activity can be quantitatively determined using a Kinase-Glo® luminescent kinase assay kit (Promega) that measures ATP consumption by EF2K during phosphorylation of the substrate. ATP conversion was recorded using Perkin-Elmer Victor Luminometer. Data was plotted using GraphPad software and IC50 was calculated using 3-parameter sigmoidal curve fit.

With `CC1(C)CCc2nc3sc(C(N)=O)c(N)c3c(-c3ccco3)c2C1` [Compound 6, 3-Amino-4-furan-2-yl-6,6-dimethyl-5,6,7,8-tetrahydro-thieno[2,3-b]quinoline-2-carboxylic acid amide] as the compound, how does the IC50 read?
The IC50 was 1.2 µM.

For `NC(=O)c1sc2nc3c(c(-c4ccc(Cl)o4)c2c1N)CC(c1ccccc1)CC3` (stereo not shown) [Compound 4, 3-Amino-4-(5-chloro-furan-2-yl)-6-phenyl-5,6,7,8-tetrahydro-thieno[2,3-b]quinoline-2-carboxylic acid amide], which IC50 is on record?
The IC50 was 10000 µM.

With `CC1(C)CCCc2c1nc1sc(C(N)=O)c(N)c1c2-c1cncs1` [Compound 38, 3-Amino-8,8-dimethyl-4-thiazol-5-yl-5,6,7,8-tetrahydro-thieno[2,3-b]quinoline-2-carboxylic acid amide] as the compound, how does the IC50 read?
Its IC50 is 0.3 µM.

With `CC1(C)CCc2c1nc1sc(C(N)=O)c(N)c1c2-c1ccc(Cl)o1` [Compound 9, 3-Amino-4-(5-chloro-furan-2-yl)-7,7-dimethyl-6,7-dihydro-5H-1-thia-8-aza-s-indacene-2-carboxylic acid amide] as the compound, how does the IC50 read?
The IC50 was 2.4 µM.

Which IC50 does the source give for `Cn1cc(-c2c3c(nc4sc(C(N)=O)c(N)c24)C(C)(C)CCC3)cn1` [Compound 39, 3-Amino-8,8-dimethyl-4-(1-methyl-1H-pyrazol-4-yl)-5,6,7,8-tetrahydro-thieno[2,3-b]quinoline-2-carboxylic acid amide] here?
Its IC50 is 1.4 µM.

How did the IC50 turn out when `CC1(C)CCc2c(nc3sc(C(N)=O)c(N)c3c2-c2ccc(Cl)c(Cl)c2)C1` [Compound 11, 3-Amino-4-(3,4-dichloro-phenyl)-7,7-dimethyl-5,6,7,8-tetrahydro-thieno[2,3-b]quinoline-2-carboxylic acid amide] was run?
The IC50 was 23 µM.

`CC1CC(C)(C)Cc2nc3sc(C(N)=O)c(N)c3c(-c3cncs3)c21` (stereo not shown) [Compound 36, 3-Amino-5,7,7-trimethyl-4-thiazol-5-yl-5,6,7,8-tetrahydro-thieno[2,3-b]quinoline-2-carboxylic acid amide] was tested. Which IC50 did it give?
The IC50 was 0.4 µM.

With `CC1(C)C/C(=C\c2ccoc2)c2nc3sc(C(N)=O)c(N)c3c(-c3ccoc3)c2C1` [Compound 22, 3-Amino-4-furan-3-yl-8-furan-3-ylmethylene-6,6-dimethyl-5,6,7,8-tetrahydro-thieno[2,3-b]quinoline-2-carboxylic acid amide] as the compound, how does the IC50 read?
Its IC50 is 6 µM.

Which IC50 does the source give for `CC1(C)C/C(=C\c2ccc(Cl)o2)c2nc3sc(C(N)=O)c(N)c3c(-c3ccc(Cl)o3)c2C1` [Compound 1, 3-Amino-4-(5-chloro-furan-2-yl)-8-(5-chloro-furan-2-ylmethylene)-6,6-dimethyl-5,6,7,8-tetrahydro-thieno[2,3-b]quinoline-2-carboxylic acid amide] here?
Its IC50 is 2.7 µM.

How did the IC50 turn out when `CC1(C)CCCc2c1nc1sc(C(N)=O)c(N)c1c2-c1cc(Br)co1` [Compound 37, 3-Amino-4-(4-bromo-furan-2-yl)-8,8-dimethyl-5,6,7,8-tetrahydro-thieno[2,3-b]quinoline-2-carboxylic acid amide] was run?
The IC50 was 0.9 µM.

How did the IC50 turn out when `CC1(C)CCc2c1nc1sc(C(N)=O)c(N)c1c2-c1ccco1` [Compound 15, 3-Amino-4-furan-2-yl-7,7-dimethyl-6,7-dihydro-5H-1-thia-8-aza-s-indacene-2-carboxylic acid amide] was run?
Its IC50 is 2.5 µM.

How did the IC50 turn out when `CC1(C)CCc2c1nc1sc(C(N)=O)c(N)c1c2C1CC1` [Compound 19, 3-Amino-4-cyclopropyl-7,7-dimethyl-6,7-dihydro-5H-1-thia-8-aza-s-indacene-2-carboxylic acid amide] was run?
Its IC50 is 1.1 µM.

For `NC(=O)c1sc2nc3c(c(-c4ccc(Cl)o4)c2c1N)CCCC3c1ccccc1` (stereo not shown) [Compound 13, 3-Amino-4-(5-chloro-furan-2-yl)-8-phenyl-5,6,7,8-tetrahydro-thieno[2,3-b]quinoline-2-carboxylic acid amide], which IC50 is on record?
Its IC50 is 31 µM.

With `CC1(C)CCc2c(nc3sc(C(N)=O)c(N)c3c2-c2ccco2)C1` [Compound 10, 3-Amino-4-furan-2-yl-7,7-dimethyl-5,6,7,8-tetrahydro-thieno[2,3-b]quinoline-2-carboxylic acid amide] as the compound, how does the IC50 read?
The IC50 was 1 µM.

For `CC1(C)CCCc2c1nc1sc(C(N)=O)c(N)c1c2-c1ccc(Cl)o1` [Compound 8, 3-Amino-4-(5-chloro-furan-2-yl)-8,8-dimethyl-5,6,7,8-tetrahydro-thieno[2,3-b]quinoline-2-carboxylic acid amide], which IC50 is on record?
The IC50 was 4.7 µM.

How did the IC50 turn out when `CC1(C)CCc2c1nc1sc(C(N)=O)c(N)c1c2-c1cocn1` [Compound 31, 3-Amino-7,7-dimethyl-4-oxazol-4-yl-6,7-dihydro-5H-1-thia-8-aza-s-indacene-2-carboxylic acid amide] was run?
The IC50 was 3.5 µM.

For `NC(=O)c1sc2nc3c(c(-c4cncs4)c2c1N)CCCC31CCCC1` [Compound 42], which IC50 is on record?
Its IC50 is 3.1 µM.

With `CC1(C)CCc2c1nc1sc(C(N)=O)c(N)c1c2-c1cncs1` [Compound 28, 3-Amino-7,7-dimethyl-4-thiazol-5-yl-6,7-dihydro-5H-1-thia-8-aza-s-indacene-2-carboxylic acid amide] as the compound, how does the IC50 read?
Its IC50 is 0.4 µM.

How did the IC50 turn out when `CC1(C)C/C(=C\c2cccc(Cl)c2F)c2nc3sc(C(N)=O)c(N)c3c(-c3cccc(Cl)c3F)c2C1` [Compound 14, 3-Amino-8-(3-chloro-2-fluoro-benzylidene)-4-(3-chloro-2-fluoro-phenyl)-6,6-dimethyl-5,6,7,8-tetrahydro-thieno[2,3-b]quinoline-2-carboxylic acid amide] was run?
Its IC50 is 5020 µM.

How did the IC50 turn out when `Cn1cc(-c2c3c(nc4sc(C(N)=O)c(N)c24)C(C)(C)CC3)cn1` [Compound 29, 3-Amino-7,7-dimethyl-4-(1-methyl-1H-pyrazol-4-yl)-6,7-dihydro-5H-1-thia-8-aza-s-indacene-2-carboxylic acid amide] was run?
Its IC50 is 0.7 µM.

How did the IC50 turn out when `CC1(C)CCc2c1nc1sc(C(N)=O)c(N)c1c2-c1ccsc1` [Compound 18, 3-Amino-7,7-dimethyl-4-thiophen-3-yl-6,7-dihydro-5H-1-thia-8-aza-s-indacene-2-carboxylic acid amide] was run?
Its IC50 is 0.9 µM.

Which IC50 does the source give for `CCCC1C/C(=C\c2ccc(Cl)o2)c2nc3sc(C(N)=O)c(N)c3c(-c3ccc(Cl)o3)c2C1` (stereo not shown) [Compound 5, 3-Amino-4-(5-chloro-furan-2-yl)-8-(5-chloro-furan-2-ylmethylene)-6-propyl-5,6,7,8-tetrahydro-thieno[2,3-b]quinoline-2-carboxylic acid amide] here?
Its IC50 is 6 µM.

How did the IC50 turn out when `CC1(C)CCc2c(nc3sc(C(N)=O)c(N)c3c2-c2ccc(Cl)o2)C1` [Compound 7, 3-Amino-4-(5-chloro-furan-2-yl)-7,7-dimethyl-5,6,7,8-tetrahydro-thieno[2,3-b]quinoline-2-carboxylic acid amide] was run?
Its IC50 is 1.6 µM.

How did the IC50 turn out when `CC1(C)CCc2c1nc1sc(C(N)=O)c(N)c1c2-c1ccc(Br)s1` [Compound 27, 3-Amino-4-(5-bromo-thiophen-2-yl)-7,7-dimethyl-6,7-dihydro-5H-1-thia-8-aza-s-indacene-2-carboxylic acid amide] was run?
The IC50 was 1.5 µM.

How did the IC50 turn out when `NC(=O)c1sc2nc3c(c(-c4ccc(Cl)o4)c2c1N)CC(c1ccccc1)C/C3=C\c1ccc(Cl)o1` (stereo not shown) [Compound 3, 3-Amino-4-(5-chloro-furan-2-yl)-8-(5-chloro-furan-2-ylmethylene)-6-phenyl-5,6,7,8-tetrahydro-thieno[2,3-b]quinoline-2-carboxylic acid amide] was run?
Its IC50 is 10000 µM.

For `CC1(C)CCc2c1nc1sc(C(N)=O)c(N)c1c2-c1sccc1Br` [Compound 34, 3-Amino-4-(3-bromo-thiophen-2-yl)-7,7-dimethyl-6,7-dihydro-5H-1-thia-8-aza-s-indacene-2-carboxylic acid amide], which IC50 is on record?
Its IC50 is 0.8 µM.

Which IC50 does the source give for `NC(=O)c1sc2nc3c(c(-c4cncs4)c2c1N)C1CCC3C1` (stereo not shown) [Compound 43] here?
Its IC50 is 0.9 µM.

Which IC50 does the source give for `CC1(C)CCc2nc3sc(C(N)=O)c(N)c3c(-c3ccsc3)c2C1` [Compound 20, 3-Amino-6,6-dimethyl-4-thiophen-3-yl-5,6,7,8-tetrahydro-thieno[2,3-b] quinoline-2-carboxylic acid amide] here?
The IC50 was 2.2 µM.

With `CC1(C)CCc2c1nc1sc(C(N)=O)c(N)c1c2-c1ccoc1` [Compound 17, 3-Amino-4-furan-3-yl-7,7-dimethyl-6,7-dihydro-5H-1-thia-8-aza-s-indacene-2-carboxylic acid amide] as the compound, how does the IC50 read?
The IC50 was 1.1 µM.

For `CC1(C)CCc2nc3sc(C(N)=O)c(N)c3c(-c3ccc(Cl)o3)c2C1` [Compound 2, 3-Amino-4-(5-chloro-furan-2-yl)-6,6-dimethyl-5,6,7,8-tetrahydro-thieno[2,3-b]quinoline-2-carboxylic acid amide], which IC50 is on record?
Its IC50 is 1.1 µM.

With `CCC(C)c1c2c(nc3sc(C(N)=O)c(N)c13)C(C)(C)CC2` (stereo not shown) [Compound 26, 3-Amino-4-sec-butyl-7,7-dimethyl-6,7-dihydro-5H-1-thia-8-aza-s-indacene-2-carboxylic acid amide] as the compound, how does the IC50 read?
The IC50 was 1 µM.

With `CC1(C)CCc2c1nc1sc(C(N)=O)c(N)c1c2-c1cscn1` [Compound 30, 3-Amino-7,7-dimethyl-4-thiazol-4-yl-6,7-dihydro-5H-1-thia-8-aza-s-indacene-2-carboxylic acid amide] as the compound, how does the IC50 read?
The IC50 was 3.4 µM.

For `CC1CC(C)(C)Cc2nc3sc(C(N)=O)c(N)c3c(-c3ccco3)c21` (stereo not shown) [Compound 16, 3-Amino-4-furan-2-yl-5,7,7-trimethyl-5,6,7,8-tetrahydro-thieno[2,3-b]quinoline-2-carboxylic acid amide], which IC50 is on record?
The IC50 was 4.6 µM.

For `Cc1nc(C)c(-c2c3c(nc4sc(C(N)=O)c(N)c24)C(C)(C)CC3)s1` [Compound 41, 3-Amino-4-(2,4-dimethyl-thiazol-5-yl)-7,7-dimethyl-6,7-dihydro-5H-1-thia-8-aza-s-indacene-2-carboxylic acid amide], which IC50 is on record?
Its IC50 is 0.5 µM.
